Peptide text beside a SMILES is read from it.
Experiments:
Type in all cases: cell-based, Pseudomonas aeruginosa
[1] = system: exopolysaccharide production in MRPA0108; test: Exopolysaccharide determination, phenol-H2SO4 method; conditions: phenol-H2SO4, 490 nm
Description: (§1) Exopolysaccharides were determined using the phenol-H2SO4 method. Briefly, after incubation, the cultures were centrifuged at 10,000 rpm for 15 min, and the pellets were resuspended in high-salt buffer (10 mM KPO4, 5 mM NaCl, 2.5 mM MgSO4, pH 7.0), followed by recentrifugation at 10,000 rpm for 30 min. The resulting supernatant was mixed with three volumes of chilled ethanol (100%) and incubated overnight at 4°C. The precipitated exopolysaccharide was added to a mixture containing cold phenol and H2SO4, and the absorbance of the solution was measured at 490 nm. Alginate content was determined using the H2SO4-carbazole method. Briefly, after incubation, the precooled cultures were mixed with an H2SO4 solution (4:1) and vortexed in ice water, and then 0.2% carbazole dissolved in ethanol was added. The mixture was revortexed and incubated at 55°C for 30 min, and the OD 530 nm was measured.

[2] = system: MRPA0108 biofilm formation; conditions: peptide at 1 × MIC, 24 h, 37°C; crystal violet OD 590 nm; vs control
Description: The biofilm formation of the MRPA0108 strain was assessed as described previously ([Shang et al., 2017]). Briefly, 50 μl of a mid-log growth-phase bacterial solution (1 × 10^5 CFU/ml) was placed into a 96-well microtiter plate and incubated overnight with 50 μl of peptide at a final concentration of 1/8 × MIC, 1/4 × MIC, 1/2 × MIC, or 1 × MIC. LB liquid medium and erythromycin were used as negative and positive controls, respectively. After 24 h of incubation at 37°C, planktonic bacteria were carefully removed, and the biofilms were fixed with formaldehyde for 15 min and stained with 0.1% (w/v) crystal violet (CV) dye for 5 min. Before being quantified by reading the absorbance at 590 nm in a microtiter plate reader (Varioskan Flash Microplate Reader, Thermo Fisher Scientific Co., Beijing), biofilms were washed and solubilized with 95% ethanol. The OD 590 nm was determined as a measure of biofilm biomass.

[3] = system: pyocyanin production in MRPA0108; test: Pyocyanin production assay; conditions: peptide at 1/4 × MIC, 24 h; OD 520 nm; vs untreated control; triplicate
Description: The culture supernatant was obtained after centrifugation at 12,000×g for 10 min. (1) LasB elastase activity was measured using elastin-Congo red (ECR) as the substrate, as described by [Pattnaik et al. (2018)]. Briefly, 100 μl of the culture supernatant was added to 900 μl of ECR buffer (100 mM Tris-HCl, 1 mM CaCl2, pH 7.5) containing 10 mg of ECR and then incubated with shaking at 37°C for 18 h. Then, 100 μl of 0.12 M EDTA was added to stop the reaction. The insoluble ECR was removed by centrifugation, and the supernatant absorbance was measured at 495 nm. The optical density (OD) 495 nm/OD 600 nm represents the elastase activity. (2) LasA protease activity was measured as follows ([Pattnaik et al., 2018]): first, the culture supernatant was filtered to remove the bacterial cells, and then 150 μl of sterile-filtered supernatant was added to 2% azocasein (prepared in 50 mM Tris-HCl) and incubated for 4 h at 37°C. […] After centrifugation at 10,000 rpm for 10 min, 1 M NaOH was added to the supernatant, and the relative protease activity was measured at OD 440 nm. (3) The pyocyanin assay was based on the absorbance of excreted pyocyanin at 520 nm in an acidic solution ([Kong et al., 2005]). […] The OD 520 nm was measured to evaluate the change in pyocyanin content. […] The absorbance was measured at 420 nm. (5) The level of C4-HSL was quantified by GC-MS as previously described ([Guo et al., 2012]).

[4] = system: alginate production in MRPA0108; test: Alginate determination, H2SO4-carbazole method; conditions: OD 530 nm
Description: as §1

[5] = system: OprM gene expression in MRPA0108; test: Real-time qPCR of efflux pump gene OprM; conditions: peptide at its MIC (I1W 6.25 μM, L12W 25 μM); Supplementary Figure S2
Description: (§2) Mid-logarithmic (mid-log) growth-phase MRPA0108 cells (1 × 10^8 CFU/ml) were incubated with the different concentrations of peptide at 37°C for 18 h. The bacterial cells were collected by centrifugation at 13,000×g and digested in lysis buffer containing 10 mg/ml lysozyme. Total RNA was isolated by using a TRIzol® Max^TM Kit (Invitrogen, Shanghai, China) according to the manufacturer’s instructions and subsequently reverse transcribed into cDNA using a Prime Script RT Master Mix Kit (Takara, Dalian, China). Real-time PCR was performed in an ABI QuantStudio^TM 5 sequence detection system (Applied Biosystems, United States) using 2 × SYBR Premix Ex Taq II (Solarbio Science and Technology Co., Ltd.). The PCR cycling conditions were as follows: 95°C for 30 s and 40 cycles of 5 s at 95°C, 30 s at 60°C, and 20 s at 72°C. The fold changes calculated according to the comparative cycle threshold (Ct) method were used for quantifying gene expression, normalizing to the expression of the housekeeping gene rpsL. PCR primers, including those for lasA, lasB, rhlA, rhlB, pelA, algD, psl, oprD, oprM, mexA, and mexB, were synthesized by Sangon Biotech (Shanghai, China) and are presented in Supplementary Table S2.

[6] = system: OprD gene expression in MRPA0108; test: Real-time qPCR of porin gene OprD; conditions: peptide at its MIC (I1W 6.25 μM, L12W 25 μM); Supplementary Figure S2
Description: as §2

CC[C@H](C)[C@H](NC(=O)[C@H](CCCCN)NC(=O)[C@H](CO)NC(=O)[C@H](CC(C)C)NC(=O)[C@@H](NC(=O)[C@H](CCCCN)NC(=O)[C@H](CCCCN)NC(=O)[C@@H](N)Cc1c[nH]c2ccccc12)[C@@H](C)CC)C(=O)N[C@@H](CCCCN)C(=O)N[C@@H](CCCCN)C(=O)N[C@@H](CC(C)C)C(=O)N[C@@H](CC(C)C)C(=O)N[C@@H](CCCCN)C(N)=O [I1W] (H-WKKILSKIKKLLK-NH2; N-terminus and C-terminus assumed)
reduction of exopolysaccharide production ([1]; peptide at 1/4 × MIC, overnight 37°C): 26.3%
reduction of exopolysaccharide production ([1]; peptide at 1 × MIC): 67.3%
reduction of exopolysaccharide production ([1]; peptide concentration increased onefold from 1/4 × MIC): 42.6%
reduction of biofilm formation [2]: 53%
reduction of pyocyanin production [3]: 73.7%
inhibition of alginate production ([4]; peptide at 1/4 × MIC): 53%
inhibition of alginate production ([4]; peptide at 1 × MIC): 74%
reduction of OprM gene expression [5]: 22.3%
reduction of OprD gene expression [6]: 27%
